The source of these data is patent US4178442A, “Novel cinnamoyles piperazines and homopiperazines, the method of preparing them and their application in therapeutics” (Delalande S. A., priority 1977, dated 1979).

The structures appear in SMILES notation. Like-named read-outs stand apart in the source and are kept apart here.

One series is described as follows: in vivo. The settings on record: for LD50: read-out: Toxicity: LD50; for mortality: read-out: Toxicity (Mortality). The text has this: *LD50 or percentage of mortality which is given between brackets
The test system of another series is anaesthetized dog. Kind of series: Antiangorous activity on anaesthetized dog: consumption of oxygen in the left ventricule and cardiac effort (KATZ's index). Type of series: in vivo. Conditions: for inhibition in vivo at 2.3 mg/kg / inhibition in vivo at 0.625 mg/kg / inhibition in vivo at 2.5 mg/kg / inhibition in vivo at […] / inhibition in vivo at 0.12 mg/kg / inhibition in vivo at 1.25 mg/kg: Canis lupus familiaris, iv; for inhibition in vivo at […]: 0.15 mg/kg i.v. slow perfusion. Summed up: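 Dogs anaesthetized with sodium pentobarbital 30 mg/kg i.v.; compounds given by slow i.v. perfusion. Left ventricular O2 consumption = coronary venous flow (Morawitz cannula in coronary sinus) × arteriovenous O2 difference; cardiac effort (Katz index) = mean arterial pressure × heart rate from D2 ECG.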

Setting [1] is: 2.3 mg/kg i.v. slow perfusion, read-out: Diminution in consumption of O2.
Where [2] appears, read: 2.3 mg/kg i.v. slow perfusion, read-out: Diminution in the cardiac effort (IK).
Where [3] appears, read: 0.625 mg/kg i.v. slow perfusion.
Setting [4] is: 0.625 mg/kg i.v. slow perfusion, read-out: Diminution in consumption of O2.
[5] abbreviates: 0.625 mg/kg i.v. slow perfusion, read-out: Diminution in the cardiac effort (IK).
Setting [6] is: read-out: Diminution in consumption of O2.
The mark [7] stands for this setting: read-out: Diminution in the cardiac effort (IK).

The term LD50 denotes the dose at which mortality reaches 50%. On to `COc1cc(/C=C/C(=O)N2CCN(CC(O)CSc3ccccc3)CC2)cc(OC)c1OC` (stereo not drawn) [770 060], for which, in “in vivo” (iv), the 50% lethal dose (LD50) stood at 195 mg/kg. Moreover, in the series on anaesthetized dog (2.3 mg/kg i.v. slow perfusion), the “Diminution in consumption of O2: in time” value was determined as 23 min and the “Diminution in the cardiac effort (IK): in time” value (“Diminution in the cardiac effort” for short) worked out at 30 min. Further, the inhibition in vivo at 2.3 mg/kg in the series on anaesthetized dog (setting [1]) turned out to be 58%. Further, the inhibition in vivo at 2.3 mg/kg in the series on anaesthetized dog (setting [2]) came out at 35%.
As for `CCOC(=O)Nc1ccc(OCC(O)CN2CCN(C(=O)/C=C/c3cc(OC)c(OC)c(OC)c3)CC2)c2c1OCCO2` (stereo not drawn) [770 525], the LD50 in “in vivo” (iv) worked out at 325 mg/kg. In addition, in the series on anaesthetized dog (setting [3]), the “Diminution in consumption of O2: in time” value was 60 min and the “Diminution in the cardiac effort” value worked out at 60 min. In the series with anaesthetized dog (setting [4]), the inhibition in vivo at 0.625 mg/kg stood at 66%. Further, the inhibition in vivo at 0.625 mg/kg in the series on anaesthetized dog (setting [5]) was 43%.
For orientation: mortality means the share of the test organisms that died. As to `CNC(=O)Nc1ccc(OCC(O)CN2CCN(C(=O)/C=C/c3cc(OC)c(OC)c(OC)c3)CC2)c(OC)c1OC` (stereo not drawn) [770 992], in “in vivo” (iv, 400 mg/kg i.v.), the mortality amounted to 0%. Also, in the series on anaesthetized dog (2.5 mg/kg i.v. slow perfusion), the “Diminution in consumption of O2: in time” value is 40 min and the “Diminution in the cardiac effort” value was 30 min. In addition, the inhibition in vivo at 2.5 mg/kg with anaesthetized dog (2.5 mg/kg i.v. slow perfusion, read-out: Diminution in consumption of O2) came to 77%. Further, the inhibition in vivo at 2.5 mg/kg in the series on anaesthetized dog (2.5 mg/kg i.v. slow perfusion, read-out: Diminution in the cardiac effort (IK)) amounted to 36%.
`CCNC(=O)Nc1ccc(OCC(O)CN2CCN(C(=O)/C=C/c3cc(OC)c(OC)c(OC)c3)CC2)c2c1OCCO2` (stereo not drawn) [770 307]: the mortality in “in vivo” (iv, 367 mg/kg i.v.) was 10%. Moreover, the inhibition in vivo at […] with anaesthetized dog (setting [6]) stood at 43%; with anaesthetized dog (setting [7]), 11%.
On to `COc1cc(/C=C/C(=O)N2CCN(CC(O)COc3ccc(NC(C)=O)c4c3OCCO4)CC2)cc(OC)c1OC` (stereo not drawn) [760 868], for which the mortality in the series “in vivo” (iv, 215 mg/kg i.v.) worked out at 40%. Besides, in the series on anaesthetized dog (0.12 mg/kg i.v. slow perfusion), the “Diminution in consumption of O2: in time” value stood at 30 min and the “Diminution in the cardiac effort” value came to 30 min. Moreover, in the series on anaesthetized dog (0.12 mg/kg i.v. slow perfusion, read-out: Diminution in consumption of O2), the inhibition in vivo at 0.12 mg/kg was determined as 33%. Also, the inhibition in vivo at 0.12 mg/kg in the series with anaesthetized dog (0.12 mg/kg i.v. slow perfusion, read-out: Diminution in the cardiac effort (IK)) is 18%.
Consider `COc1cc(/C=C/C(=O)N2CCN(CC(O)COc3ccc(NC(=O)c4ccccc4)c4c3OCCO4)CC2)cc(OC)c1OC` (stereo not drawn) [770 529], for which the mortality in “in vivo” (po, p.o.: 2000 mg/kg) is 22%. Further, in the series on anaesthetized dog (setting [3]), the “Diminution in consumption of O2: in time” value came out at 30 min and the “Diminution in the cardiac effort” value is on record as 30 min. Further, in the series on anaesthetized dog (setting [4]), the inhibition in vivo at 0.625 mg/kg came to 56%. For the same molecule, the inhibition in vivo at 0.625 mg/kg in the series on anaesthetized dog (setting [5]) stood at 29%.
Turning to `COc1cc(/C=C/C(=O)N2CCN(CC(O)COc3ccccc3F)CC2)cc(OC)c1OC` (stereo not drawn) [760 619], the median lethal dose (LD50) in “in vivo” (iv) was 158 mg/kg. Besides, in the series with anaesthetized dog (2.3 mg/kg i.v. slow perfusion), the “Diminution in consumption of O2: in time” value is listed as 30 min and the “Diminution in the cardiac effort” value is recorded as 30 min. Besides, the inhibition in vivo at 2.3 mg/kg with anaesthetized dog (setting [1]) was found to be 55%. For the same molecule, the inhibition in vivo at 2.3 mg/kg in the series on anaesthetized dog (setting [2]) came out at 44%.
As to `COc1cc(/C=C/C(=O)N2CCN(CC(O)COc3ccc(C(=O)NC4CCCCC4)c4c3OCCO4)CC2)cc(OC)c1OC` (stereo not drawn) [770 831], the mortality in “in vivo” (po, p.o.: 2000 mg/kg) is 0%. Besides, in the series with anaesthetized dog (1.25 mg/kg i.v. slow perfusion), the “Diminution in consumption of O2: in time” value is on record as 30 min and the “Diminution in the cardiac effort” value is recorded as 45 min. For the same molecule, the inhibition in vivo at 1.25 mg/kg with anaesthetized dog (1.25 mg/kg i.v. slow perfusion, read-out: Diminution in consumption of O2) amounted to 45%. In the series with anaesthetized dog (1.25 mg/kg i.v. slow perfusion, read-out: Diminution in the cardiac effort (IK)), the inhibition in vivo at 1.25 mg/kg was determined as 27%.
Take `CCCCC(=O)Nc1ccc(OCC(O)CN2CCN(C(=O)/C=C/c3cc(OC)c(OC)c(OC)c3)CC2)c2c1OCCO2` (stereo not drawn) [770 601]: in the series “in vivo” (po, p.o.: 2000 mg/kg), the mortality was determined as 22%. The “Diminution in consumption of O2: in time” value in the series with anaesthetized dog (setting [3]) amounted to 30 min. Moreover, in the series on anaesthetized dog (setting [3]), the “Diminution in the cardiac effort” value came out at 30 min. The inhibition in vivo at 0.625 mg/kg is 69% in the series with anaesthetized dog (setting [4]) and 25% with anaesthetized dog (setting [5]).
Consider `COc1cc(/C=C/C(=O)N2CCN(CC(O)COc3ccc([N+](=O)[O-])cc3)CC2)cc(OC)c1OC` (stereo not drawn) [760 538], for which, in the series “in vivo” (iv, 185 mg/kg i.v.), the mortality stood at 10%. The “Diminution in consumption of O2: in time” value with anaesthetized dog (2.3 mg/kg i.v. slow perfusion) is reported as 15 min. Moreover, in the series with anaesthetized dog (2.3 mg/kg i.v. slow perfusion), the “Diminution in the cardiac effort” value is recorded as 30 min. The inhibition in vivo at 2.3 mg/kg in the series with anaesthetized dog (setting [1]) was found to be 48%; in the series with anaesthetized dog (setting [2]), 37%.
For `COc1cc(/C=C/C(=O)N2CCN(CC(O)COc3ccc(NC(=O)Nc4ccccc4)c4c3OCCO4)CC2)cc(OC)c1OC` (stereo not drawn) [770 085], in “in vivo” (po, p.o.: 1855 mg/kg), the mortality amounted to 0%. In addition, the values for the inhibition in vivo at […] with anaesthetized dog (setting [6]) and in the series with anaesthetized dog (setting [7]) were 44% and 14%, respectively.
